Assay results: US6777413B2, “2-[1H]-quinolone and 2-[1H]-quinoxalone inhibitors of factor Xa” (Millennium Pharmaceuticals, Inc., priority 2000, dated 2004)

Experiments:
TRYPSIN = biological target: T1, TRYPSIN (Bos taurus, UniProt P00760); experiment: trypsin protease inhibition; format: biochemical
T1 construct: gene PRSS1
T1 sequence (P00760 24-246): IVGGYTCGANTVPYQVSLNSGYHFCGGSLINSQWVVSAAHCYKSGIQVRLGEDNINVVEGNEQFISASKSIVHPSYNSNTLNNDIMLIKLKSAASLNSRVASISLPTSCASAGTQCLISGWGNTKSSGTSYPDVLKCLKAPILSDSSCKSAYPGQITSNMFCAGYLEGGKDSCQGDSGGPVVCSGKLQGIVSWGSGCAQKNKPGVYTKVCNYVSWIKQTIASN

thrombin = thrombin (Homo sapiens, UniProt P00734); experiment: thrombin amidolytic assay (IIA)
Method: (§1) In the assays for thrombin, prothrombinase and factor Xa, a synthetic chromogenic substrate is added to a solution containing test compound and the enzyme of interest and the residual catalytic activity of that enzyme is determined spectrophotometrically. The IC50 of a compound is determined from the substrate turnover. […] The factor Xa and thrombin assays are performed at room temperature, in 0.02 M Tris·HCl buffer, pH 7.5, containing 0.15 M NaCl.

factor Xa = factor Xa (Homo sapiens, UniProt P00742); experiment: factor Xa amidolytic assay (XA)
Method: as §1

prothrombinase complex = prothrombinase complex (Homo sapiens, UniProt P00742); experiment: prothrombinase inhibition assay (IIASE); format: biochemical; conditions: plasma free system, Chromozym TH
Method: The prothrombinase inhibition assay is performed in a plasma free system with modifications to the method described by Sinha, U. et al., Thromb. […] Specifically, the activity of the prothrombinase complex is determined by measuring the time course of thrombin generation using the p-nitroanilide substrate Chromozym TH. […] Aliquots from the complex-inhibitor mixture are added to prothrombin (1 nM) and Chromozym TH (0.1 mM). […] Eight different concentrations of inhibitor are assayed in duplicate. A standard curve of thrombin generation by an equivalent amount of untreated complex is used for determination of percent inhibition.

Chain of prothrombinase complex (P00742 235-488 limits assumed): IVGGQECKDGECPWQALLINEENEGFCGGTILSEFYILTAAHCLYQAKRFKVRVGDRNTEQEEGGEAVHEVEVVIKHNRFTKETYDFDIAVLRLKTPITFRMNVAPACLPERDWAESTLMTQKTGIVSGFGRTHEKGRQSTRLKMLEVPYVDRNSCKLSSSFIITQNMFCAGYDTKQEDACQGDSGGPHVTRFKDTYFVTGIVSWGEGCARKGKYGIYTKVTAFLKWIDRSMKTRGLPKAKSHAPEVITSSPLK
Chain of prothrombinase complex (P00742 41-179 limits assumed): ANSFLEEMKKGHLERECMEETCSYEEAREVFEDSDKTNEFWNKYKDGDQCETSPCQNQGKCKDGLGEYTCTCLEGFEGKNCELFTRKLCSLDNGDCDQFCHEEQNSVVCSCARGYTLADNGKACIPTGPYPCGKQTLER
Chain of prothrombinase complex (P12259 29-737 partner limits assumed): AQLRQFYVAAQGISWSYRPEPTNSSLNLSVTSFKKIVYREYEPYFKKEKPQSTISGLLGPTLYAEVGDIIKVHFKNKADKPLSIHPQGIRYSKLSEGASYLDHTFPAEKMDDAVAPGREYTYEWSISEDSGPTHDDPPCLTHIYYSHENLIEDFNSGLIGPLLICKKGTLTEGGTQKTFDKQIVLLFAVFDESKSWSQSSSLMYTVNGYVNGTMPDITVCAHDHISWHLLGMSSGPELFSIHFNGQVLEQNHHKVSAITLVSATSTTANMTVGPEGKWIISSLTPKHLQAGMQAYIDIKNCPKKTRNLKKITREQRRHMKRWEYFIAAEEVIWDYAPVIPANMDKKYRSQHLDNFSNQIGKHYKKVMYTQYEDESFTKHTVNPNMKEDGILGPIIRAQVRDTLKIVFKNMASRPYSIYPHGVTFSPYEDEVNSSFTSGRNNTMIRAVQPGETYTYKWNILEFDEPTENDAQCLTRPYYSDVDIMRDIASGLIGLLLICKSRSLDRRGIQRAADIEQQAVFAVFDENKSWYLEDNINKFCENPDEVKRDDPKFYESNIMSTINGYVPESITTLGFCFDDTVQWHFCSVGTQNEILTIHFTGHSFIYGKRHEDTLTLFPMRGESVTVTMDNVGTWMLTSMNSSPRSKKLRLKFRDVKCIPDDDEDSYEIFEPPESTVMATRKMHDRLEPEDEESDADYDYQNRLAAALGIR
Chain of prothrombinase complex (P12259 1574-2224 partner limits assumed): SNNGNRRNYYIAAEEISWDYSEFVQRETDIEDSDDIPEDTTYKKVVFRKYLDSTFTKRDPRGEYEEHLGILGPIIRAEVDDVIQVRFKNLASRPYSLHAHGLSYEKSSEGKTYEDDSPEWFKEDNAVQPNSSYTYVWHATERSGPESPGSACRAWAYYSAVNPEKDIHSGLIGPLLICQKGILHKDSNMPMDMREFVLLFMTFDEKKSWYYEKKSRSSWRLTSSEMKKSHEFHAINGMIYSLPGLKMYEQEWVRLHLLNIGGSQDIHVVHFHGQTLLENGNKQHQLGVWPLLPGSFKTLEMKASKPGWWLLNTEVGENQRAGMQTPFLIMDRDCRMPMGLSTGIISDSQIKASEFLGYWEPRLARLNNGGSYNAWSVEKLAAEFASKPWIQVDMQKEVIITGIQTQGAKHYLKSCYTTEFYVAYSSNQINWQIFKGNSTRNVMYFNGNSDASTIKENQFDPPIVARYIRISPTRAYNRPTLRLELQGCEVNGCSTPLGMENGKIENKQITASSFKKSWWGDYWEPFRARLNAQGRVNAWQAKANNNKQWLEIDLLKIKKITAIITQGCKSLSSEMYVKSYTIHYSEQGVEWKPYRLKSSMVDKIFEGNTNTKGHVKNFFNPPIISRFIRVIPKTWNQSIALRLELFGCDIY
Chain of factor Xa (P00742 235-488 limits assumed): as the sequence (P00742 235-488 limits assumed) above
Chain of factor Xa (P00742 41-179 limits assumed): as the sequence (P00742 41-179 limits assumed) above

IC50 (TRYPSIN)	IC50 (thrombin)	IC50 (factor Xa)	IC50 (prothrombinase complex)	SMILES
0.0772 µM	122 µM	0.151 µM	9.11 µM	N=C(N)c1ccc2ccc(Cn3c(=O)ccc4cc(OC5CCNCC5)ccc43)cc2c1 [Example 1]
0.0477 µM	4.56 µM	0.0118 µM	0.157 µM	CC(=N)N1CCC(Oc2ccc3c(ccc(=O)n3Cc3cccc(-c4cccc(C(=N)N)c4)c3)c2)CC1 [Example 4]
0.263 µM	6.59 µM	1.57 µM	46.3 µM	N=C(N)c1cccc(-c2cccc(Cn3c(=O)ccc4cc(OC5CCNCC5)ccc43)c2)c1 [Example 5]
3.63 µM	58.8 µM	4.94 µM	38.2 µM	N=C(N)c1cccc(-c2ccc(Cn3c(=O)ccc4cc(OC5CCNCC5)ccc43)cc2)c1 [Example 6]
4.29 µM	45 µM	0.0823 µM	0.362 µM	CC(=N)N1CCC(Oc2ccc3c(ccc(=O)n3Cc3ccc(-c4cccc(C(=N)N)c4)cc3)c2)CC1 [Example 7]
56.6 µM	1.7 µM	501 µM	1.92 µM	N=C(N)c1ccc(-c2ccccc2Cn2c(=O)ccc3cc(OC4CCNCC4)ccc32)cc1 [Example 8]
0.847 µM	–	2.55 µM	0.697 µM	CC(=N)N1CCC(Oc2ccc3c(ccc(=O)n3Cc3ccccc3-c3cccc(C(=N)N)c3)c2)CC1 [Example 9]
52.5 µM	0.995 µM	137 µM	1.2 µM	CC(=N)N1CCC(Oc2ccc3c(ccc(=O)n3Cc3ccccc3-c3ccc(C(=N)N)cc3)c2)CC1 [Example 10]
0.289 µM	2.48 µM	41.9 µM	2.18 µM	N=C(N)c1cccc(-c2ccccc2Cn2c(=O)ccc3cc(OC4CCNCC4)ccc32)c1 [Example 11]
4.41 µM	9.13 µM	70 µM	15.5 µM	N=C(N)c1ccc(-c2ccc(Cn3c(=O)ccc4cc(OC5CCNCC5)ccc43)cc2)cc1 [Example 12]
1.91 µM	3 µM	50 µM	8.63 µM	CC(=N)N1CCC(Oc2ccc3c(ccc(=O)n3Cc3ccc(-c4ccc(C(=N)N)cc4)cc3)c2)CC1 [Example 13]
0.0104 µM	0.0693 µM	0.00474 µM	0.0143 µM	CCn1c(Cn2c(=O)ccc3cc(OC4CCN(C(C)=N)CC4)ccc32)cc2ccc(C(=N)N)cc21 [Example 14]
3.37 µM	30.4 µM	18.8 µM	33.5 µM	CC(=N)N1CCC(Oc2ccc3c(ccc(=O)n3Cc3cccc(-c4ccc(C(=N)N)cc4)c3)c2)CC1 [Example 15]
0.315 µM	399 µM	0.209 µM	2.58 µM	CN1CCC(Oc2ccc3c(ccc(=O)n3Cc3ccc4ccc(C(=N)N)cc4c3)c2)CC1 [Example 16]
0.832 µM	11 µM	0.514 µM	1.21 µM	CCn1c(Cn2c(=O)ccc3cc(OC4CCN(C(C)=N)CC4)ccc32)cc2ccc(C(=N)NN)cc21 [Example 17]
0.656 µM	75 µM	0.58 µM	3.25 µM	N=C(N)c1ccc2ccc(Cn3c(=O)ccc4cc(OC5CCN(c6ncccn6)CC5)ccc43)cc2c1 [Example 18]
